ChEMBL document CHEMBL1201862, “PubChem BioAssay data set” (2004)
Active and inactive are the calls of the source.

How the values were obtained:
[1] = biological target: FAD-linked sulfhydryl oxidase ALR (Homo sapiens, UniProt P55789); assay: ALR-catalysed DTT oxidation blockers – biochemical, H2O2 detection, luminescence, cherry-pick, dose response (AID 493248)
[2] = fluconazole-exposed Candida albicans growth modulators – fluorescence, retest, confirmation (AID 2467); type: functional, cell-based
cells [3] = type: functional, cell-based
[4] = NIH-3T3 fibroblast cytotoxicity, dose response, cytotoxicity control, cell-based, fluorescence, Alamar Blue, secondary assay (AID 2327); type: functional;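 also: NIH-3T3 mouse fibroblasts cultured with fluconazole at 8 µg/mL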
cells [5] = type: functional, cell-based; remark: listed apart in the source
[6] = biological target: T1, Polyadenylate-binding protein 1 (Homo sapiens, UniProt P11940); assay: MLLE binding blockers, Cy5 peptide tracer – biochemical, fluorescence polarization, Cy5-PAM2 peptide, secondary, miRNA deadenylation inhibitor project, dose response (AID 602260); type: functional; settings: read-out: IC50_Mean
T1 sequence (P11940 whole entry, the tested form may be a part): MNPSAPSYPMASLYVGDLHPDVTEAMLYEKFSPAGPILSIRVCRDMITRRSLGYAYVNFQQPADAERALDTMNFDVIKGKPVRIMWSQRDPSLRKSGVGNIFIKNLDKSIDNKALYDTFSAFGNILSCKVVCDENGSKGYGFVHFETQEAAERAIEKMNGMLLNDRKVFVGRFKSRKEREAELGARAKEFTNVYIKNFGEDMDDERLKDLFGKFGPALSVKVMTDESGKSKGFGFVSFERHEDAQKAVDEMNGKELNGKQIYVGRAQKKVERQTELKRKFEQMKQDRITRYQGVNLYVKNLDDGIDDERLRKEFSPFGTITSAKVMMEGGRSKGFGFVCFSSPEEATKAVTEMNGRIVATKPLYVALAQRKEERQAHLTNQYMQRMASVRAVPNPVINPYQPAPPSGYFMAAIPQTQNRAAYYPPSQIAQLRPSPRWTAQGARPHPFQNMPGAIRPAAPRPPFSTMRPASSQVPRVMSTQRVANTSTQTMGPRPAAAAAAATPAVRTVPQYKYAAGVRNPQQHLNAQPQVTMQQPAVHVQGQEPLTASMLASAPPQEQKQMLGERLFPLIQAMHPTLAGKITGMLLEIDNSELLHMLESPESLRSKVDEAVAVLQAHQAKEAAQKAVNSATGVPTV

[7] = biological target: T1, Polyadenylate-binding protein 1; assay: MLLE domain peptide-binding blockers, IC50 – biochemical, fluorescence polarization, FITC-PAM2 peptide, dose response (AID 602259); type: functional; settings: read-out: IC50_Mean
[8] = biological target: T2, Heat shock factor protein 1 (Mus musculus, UniProt P38532); assay: decrease of HSF1-responsive luciferase luminescence – cell-based, NIH3T3, dose retest, confirmation (AID 2382); type: functional;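 also: NIH3T3 fibroblasts with HSF1-driven luciferase reporter stressed by proteasome inhibitor MG132; luminescence from HSF1-driven luciferase expression after 8 hours of MG132 stress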
T2 sequence (P38532 whole entry): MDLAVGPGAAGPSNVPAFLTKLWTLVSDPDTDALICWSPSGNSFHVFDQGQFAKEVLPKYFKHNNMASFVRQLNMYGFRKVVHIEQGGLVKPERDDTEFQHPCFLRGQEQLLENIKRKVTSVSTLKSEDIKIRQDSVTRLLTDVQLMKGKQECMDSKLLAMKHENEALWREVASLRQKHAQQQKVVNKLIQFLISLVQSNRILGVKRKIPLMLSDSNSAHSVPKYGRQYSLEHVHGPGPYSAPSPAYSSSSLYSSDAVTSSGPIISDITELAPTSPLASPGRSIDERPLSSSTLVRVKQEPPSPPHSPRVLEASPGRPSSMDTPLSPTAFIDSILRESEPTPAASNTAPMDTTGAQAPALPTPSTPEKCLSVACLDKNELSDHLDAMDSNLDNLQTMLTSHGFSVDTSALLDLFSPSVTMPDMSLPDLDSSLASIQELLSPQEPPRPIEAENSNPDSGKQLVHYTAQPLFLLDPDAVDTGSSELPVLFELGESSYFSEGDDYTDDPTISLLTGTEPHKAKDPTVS

[9] = Luminescence Cell-Based Dose Response HTS to Identify Inhibitors of 5'UTR Stem-Loop Driven Prion Protein mRNA Translation in H4 Neuroglioblastoma Cells. [Related pubchem assays: 1827 (Project Summary), 1813 (Primary HTS)]; type: functional
[10] = biological target: T3, Microphthalmia-associated transcription factor (Homo sapiens, UniProt O75030); assay: reducers of TRPM1 reporter luminescence, concentration series – cell-based, SK-MEL-5, cherry-picked, set 3, MITF inhibitor project, dose response (AID 493073); type: functional;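 also: SK-MEL-5 melanoma cells with luciferase driven by the MITF target TRPM1 promoter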
T3 sequence (O75030 whole entry): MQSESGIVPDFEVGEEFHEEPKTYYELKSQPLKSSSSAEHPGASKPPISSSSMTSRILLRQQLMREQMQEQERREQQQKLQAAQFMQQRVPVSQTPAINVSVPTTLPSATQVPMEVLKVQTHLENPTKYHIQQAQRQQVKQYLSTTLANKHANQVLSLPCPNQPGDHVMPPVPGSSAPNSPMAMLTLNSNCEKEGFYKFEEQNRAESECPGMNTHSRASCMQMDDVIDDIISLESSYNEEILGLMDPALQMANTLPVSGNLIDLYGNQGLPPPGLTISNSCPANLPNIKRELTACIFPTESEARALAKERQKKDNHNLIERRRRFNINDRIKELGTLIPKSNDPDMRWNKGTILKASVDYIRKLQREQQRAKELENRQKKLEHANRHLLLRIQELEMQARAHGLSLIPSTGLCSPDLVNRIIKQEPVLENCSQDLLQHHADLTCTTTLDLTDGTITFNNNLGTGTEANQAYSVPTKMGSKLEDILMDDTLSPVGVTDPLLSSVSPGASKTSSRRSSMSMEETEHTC

[11] = alpha-synuclein stem-loop luciferase translation blockers – H4 neuroglioma cells, luminescence, confirmation (AID 1988); type: functional, cell-based
Large T antigen = Large T antigen (Simian virus 40, UniProt P03070); type: functional, Betapolyomavirus macacae;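 also: Confirmatory-stage PubChem screen for compounds that inhibit SV40 T antigen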
Large T antigen, sequence (P03070 whole entry): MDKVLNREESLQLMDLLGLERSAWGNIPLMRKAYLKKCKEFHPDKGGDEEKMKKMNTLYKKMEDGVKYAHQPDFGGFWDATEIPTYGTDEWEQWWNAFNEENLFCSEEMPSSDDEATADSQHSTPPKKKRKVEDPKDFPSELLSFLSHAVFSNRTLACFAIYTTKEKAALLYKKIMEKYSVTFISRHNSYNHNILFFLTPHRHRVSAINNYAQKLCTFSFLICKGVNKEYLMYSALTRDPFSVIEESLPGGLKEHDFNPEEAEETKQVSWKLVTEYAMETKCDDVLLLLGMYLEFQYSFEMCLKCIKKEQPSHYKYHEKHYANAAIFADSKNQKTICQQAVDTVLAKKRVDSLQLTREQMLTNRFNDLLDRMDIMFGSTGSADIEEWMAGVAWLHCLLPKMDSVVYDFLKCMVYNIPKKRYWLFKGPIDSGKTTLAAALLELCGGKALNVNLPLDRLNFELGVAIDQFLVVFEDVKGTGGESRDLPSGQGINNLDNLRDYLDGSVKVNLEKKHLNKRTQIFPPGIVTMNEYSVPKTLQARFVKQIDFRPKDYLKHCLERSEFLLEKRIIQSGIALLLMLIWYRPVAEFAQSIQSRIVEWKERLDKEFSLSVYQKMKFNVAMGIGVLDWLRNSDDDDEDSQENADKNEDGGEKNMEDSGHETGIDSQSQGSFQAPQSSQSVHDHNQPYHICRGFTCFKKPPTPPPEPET

Cytochrome P450 2C19 = Cytochrome P450 2C19 (Homo sapiens, UniProt P33261); assay: Cytochrome panel assay with activity outcomes. Panel member name: p450-cyp2c19 Compounds with AC50 equal or less than 10 uM are considered active; type: functional
Cytochrome P450 2C19, sequence (P33261 whole entry): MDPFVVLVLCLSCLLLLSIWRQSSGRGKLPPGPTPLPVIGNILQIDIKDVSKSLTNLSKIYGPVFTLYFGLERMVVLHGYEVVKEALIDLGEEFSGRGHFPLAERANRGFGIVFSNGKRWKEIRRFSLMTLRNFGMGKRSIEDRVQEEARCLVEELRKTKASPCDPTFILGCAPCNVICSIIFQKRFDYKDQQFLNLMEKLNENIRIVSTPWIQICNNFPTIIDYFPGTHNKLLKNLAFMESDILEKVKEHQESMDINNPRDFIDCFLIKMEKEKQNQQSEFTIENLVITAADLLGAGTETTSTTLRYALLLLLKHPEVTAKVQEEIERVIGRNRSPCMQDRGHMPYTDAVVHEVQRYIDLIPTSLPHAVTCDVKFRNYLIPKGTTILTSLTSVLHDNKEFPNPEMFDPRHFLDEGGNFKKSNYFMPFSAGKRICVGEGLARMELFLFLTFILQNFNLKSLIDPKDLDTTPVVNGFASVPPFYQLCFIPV

Cytochrome P450 3A4 = Cytochrome P450 3A4 (Homo sapiens, UniProt P08684);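 also: CYP3A4 tested as one member of a cytochrome P450 panel screen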
Cytochrome P450 3A4, sequence (P08684 whole entry): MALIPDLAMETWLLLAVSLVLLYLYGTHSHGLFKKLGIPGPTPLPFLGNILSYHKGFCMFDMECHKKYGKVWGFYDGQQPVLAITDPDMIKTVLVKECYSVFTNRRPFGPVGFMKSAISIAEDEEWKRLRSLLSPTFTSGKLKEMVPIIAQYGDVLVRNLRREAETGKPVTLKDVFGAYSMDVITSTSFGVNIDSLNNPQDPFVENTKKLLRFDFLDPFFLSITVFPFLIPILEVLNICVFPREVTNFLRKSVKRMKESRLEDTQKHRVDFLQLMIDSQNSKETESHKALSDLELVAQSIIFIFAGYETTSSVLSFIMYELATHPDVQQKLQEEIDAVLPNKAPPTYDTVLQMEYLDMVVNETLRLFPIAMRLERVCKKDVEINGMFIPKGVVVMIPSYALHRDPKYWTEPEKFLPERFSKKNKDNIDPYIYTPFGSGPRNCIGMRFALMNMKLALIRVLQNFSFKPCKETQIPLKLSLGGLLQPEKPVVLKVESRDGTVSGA

[12] = HEK-293T viability loss after treatment – luminescence, T-cell screen hits, cytotoxicity control for TCR NF-kB inhibitor project, dose response (AID 489026); type: functional, cell-based;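 also: cells exposed to compound about 14 hours before the viability readout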
INS1 = assay: INS-1E survival protection against cytokine death – cell-based, luminescence, retest, dose response (AID 449756); type: functional; settings: Rattus norvegicus;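 also: cell death triggered by IL-1 beta plus TNF-alpha plus IFN-gamma mixture; protective hits raise ATP signal compared with cytokine alone wells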
P388/ADR = assay: cells; type: functional; settings: Mus musculus
SN12K1 = assay: cells; type: functional; settings: Homo sapiens
[13] = biological target: T4, Rac GTPase-activating protein 1 (Homo sapiens, UniProt Q9H0H5); assay: blockers of MgcRacGAP-driven Rac1 GTP hydrolysis – biochemical, ADP Hunter fluorescence, primary and confirmatory, confirmation (AID 624330); type: functional
T4 sequence (Q9H0H5 whole entry): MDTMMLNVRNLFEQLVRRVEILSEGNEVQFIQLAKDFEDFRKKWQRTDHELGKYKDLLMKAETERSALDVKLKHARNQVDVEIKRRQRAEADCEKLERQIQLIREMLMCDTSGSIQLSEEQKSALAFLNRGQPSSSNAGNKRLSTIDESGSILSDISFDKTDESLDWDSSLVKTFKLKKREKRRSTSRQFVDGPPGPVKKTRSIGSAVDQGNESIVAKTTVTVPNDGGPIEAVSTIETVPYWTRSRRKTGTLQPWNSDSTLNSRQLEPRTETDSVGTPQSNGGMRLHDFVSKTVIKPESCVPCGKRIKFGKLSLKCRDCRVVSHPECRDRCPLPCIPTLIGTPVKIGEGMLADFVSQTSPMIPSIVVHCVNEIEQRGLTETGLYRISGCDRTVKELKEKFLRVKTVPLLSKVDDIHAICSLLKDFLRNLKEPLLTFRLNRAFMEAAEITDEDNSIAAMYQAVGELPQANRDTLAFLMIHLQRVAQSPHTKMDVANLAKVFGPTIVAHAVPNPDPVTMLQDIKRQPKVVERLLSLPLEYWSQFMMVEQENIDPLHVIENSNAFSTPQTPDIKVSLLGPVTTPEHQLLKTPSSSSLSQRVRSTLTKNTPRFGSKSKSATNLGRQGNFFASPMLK

[14] = luciferase reporter signal suppression in cells – H4 neuroglioma cells, luminescence, dose response (AID 1990); type: functional, cell-based
H9c2 = assay: cells; type: functional, cell-based; settings: Rattus norvegicus, H9c2, Myocardium;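 also: confirmatory concentration-response retest of ultra-high-throughput screening hits for modulation of myocardial damage; cell death induced by hydrogen peroxide oxidative stress; compound pretreatment for 60 min then peroxide exposure for 2 h; potency is for protecting the cells against peroxide damage rather than for killing them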
Cytochrome P450 1A2 = biological target: T5, Cytochrome P450 1A2 (Homo sapiens, UniProt P05177);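 also: PubChem cytochrome P450 panel assay, CYP1A2 panel member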
T5 sequence (P05177 whole entry): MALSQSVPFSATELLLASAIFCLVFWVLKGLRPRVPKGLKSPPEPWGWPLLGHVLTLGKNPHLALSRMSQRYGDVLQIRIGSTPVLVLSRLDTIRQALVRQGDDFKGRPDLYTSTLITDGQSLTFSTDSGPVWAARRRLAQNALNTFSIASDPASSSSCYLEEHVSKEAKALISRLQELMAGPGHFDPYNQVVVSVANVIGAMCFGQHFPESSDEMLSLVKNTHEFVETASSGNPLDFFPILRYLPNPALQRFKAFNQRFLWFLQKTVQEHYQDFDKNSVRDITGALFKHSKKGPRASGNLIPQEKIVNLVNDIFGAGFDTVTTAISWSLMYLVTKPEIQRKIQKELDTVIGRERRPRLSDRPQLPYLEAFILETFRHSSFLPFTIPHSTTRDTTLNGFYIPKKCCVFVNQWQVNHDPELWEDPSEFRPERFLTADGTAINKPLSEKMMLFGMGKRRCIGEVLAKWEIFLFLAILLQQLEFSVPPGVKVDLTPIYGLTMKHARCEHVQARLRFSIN

[15] = viability of uninfected HEp-2 cells – cell-based, HTS, cytotoxicity control for RSV inhibitor project, dose response (AID 2410); type: functional; settings: human respiratory syncytial virus
[16] = blockers of HIV-1 envelope-mediated cell-cell fusion – cherry-pick, dose response (AID 652057); type: functional, cell-based
[17] = HIV-1 AD8 envelope cell-cell fusion blockers – cherry-pick, dose response (AID 652062); type: functional, cell-based;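 also: luciferase signal from cell-cell fusion driven by HIV-1 clade B AD8 Env; potency is for inhibitors of fusion seen as a drop in luminescence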

FAD-linked sulfhydryl oxidase ALR, sequence (P55789 whole entry): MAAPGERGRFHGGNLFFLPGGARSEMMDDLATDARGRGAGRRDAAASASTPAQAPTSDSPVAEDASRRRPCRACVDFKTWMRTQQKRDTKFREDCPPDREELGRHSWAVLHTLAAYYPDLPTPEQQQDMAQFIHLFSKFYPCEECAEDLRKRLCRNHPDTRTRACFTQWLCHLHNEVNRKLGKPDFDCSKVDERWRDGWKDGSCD

COc1cccc(N2CCN(CC(=O)NC(C)c3ccccc3)CC2)c1 (stereo not drawn)
AC50 [1]: 2.02 µM (active)

Nc1ncc(-c2ccccc2)c(-c2ccc(O)cc2O)n1
AC50 [1]: 3.66 µM (active)

COc1cccc(/C=N/NC(=O)c2nc(-c3ccccc3)cc(-c3ccccc3)n2)c1O
EC50 [2]: 1.54 µM (active) | EC50 (cells [3]): 12.8 µM (active) | EC50 [4]: > 150 µM (inactive) | EC50 (cells [5]): 86.6 µM (active)

Cc1ccc(N2C(=O)CC(Sc3ccccc3C(=O)O)C2=O)c([N+](=O)[O-])c1 (stereo not drawn)
IC50 [6]: > 66 µM (inactive) | IC50 [7]: > 66 µM (inactive)

CCN1CCN(/C=N/c2nc3c(s2)CCCC3)CC1
EC50 [8]: < 0.16 µM (active) | EC50 [9]: 8.93 µM (active) | AC50 [10]: 6.42 µM (active) | EC50 [11]: 7.71 µM (active)

CN(C)C(=O)c1c(-c2ccccc2)oc2ccc(O)cc12
IC50 (Large T antigen): 46.6 µM (active)

COc1ccc(-n2ccnc(SCC(=O)NC3CCCC3)c2=O)cc1
IC50 [6]: > 66 µM (inactive) | IC50 [7]: > 66 µM (inactive)

CCN1CCCC1CNC(=O)C(=O)Nc1ccc(OC)cc1 (stereo not drawn)
AC50 (Cytochrome P450 2C19): inconclusive | AC50 (Cytochrome P450 3A4): inconclusive

Cn1ncc2c(N3CCN(c4ccc(Cl)c(Cl)c4)CC3)ncnc21
IC50 [12]: > 80 µM (inactive) | AC50 (INS1): 2.55 µM (active)

O=C1CCC(C(=O)N2CCCC(Nc3ccc(F)cc3)C2)=NN1 (stereo not drawn)
AC50 [1]: 24.8 µM (active)

CCCC(=O)Nc1nc2n(n1)C(c1ccccc1)CC(=O)N2 (stereo not drawn)
AC50 (Cytochrome P450 3A4): inconclusive

Cc1[nH]c(=O)[nH]c(=O)c1N(CCF)CCCl [FLUORODOPAN]
GI50 (P388/ADR): 330 µM (inactive) | GI50 (SN12K1): 249 µM (inactive)

O=C1C=C(Nc2ccc(O)cc2)CC(c2ccco2)C1 (stereo not drawn)
IC50 (Large T antigen): 9.14 µM (active) | IC50 [13]: 19.6 µM (active)

CN(C)c1ccc(NS(=O)(=O)c2cccc(Cl)c2)cc1
IC50 (Large T antigen): 28.7 µM (active)

COc1ccc(C2=CC(c3ccc(F)cc3)n3nnnc3N2)cc1 (stereo not drawn)
IC50 [6]: > 66 µM (inactive) | IC50 [7]: > 66 µM (inactive)

COc1cc(/C=C(\C#N)c2nc3ccccc3n2C)cc(OC)c1O
IC50 (Large T antigen): 9.81 µM (active)

Cc1noc(C)c1COc1ccc(C(=O)NNC(=O)c2ccccc2F)cc1
IC50 [12]: > 80 µM (inactive)

COc1cccc(-n2nc(-c3ccnn3-c3ccccc3)c(=O)n(C)c2=O)c1
EC50 [9]: > 120 µM (not active) | EC50 [14]: 25.3 µM (active) | EC50 [11]: > 120 µM (not active)

Cc1ccc(C)c(-c2nc3ccc(N)cc3[nH]2)c1
IC50 (Large T antigen): 83.7 µM (active)

COc1ccc(NCC(=O)N/N=C/C2CCCCC2)cc1
AC50 [1]: 4.57 µM (active)

COC(=O)c1cc2c(C)c(C)c3ccccn3c-2c1C(=O)OC
IC50 [6]: > 66 µM (inactive) | IC50 [7]: > 66 µM (inactive) | IC50 (H9c2): 47.9 µM (inactive)

Cc1ccc(NC(=O)C2CCN(S(=O)(=O)c3c(C)noc3/C=C/c3ccco3)CC2)nc1
AC50 [10]: 5.56 µM (active)

O=C(Nc1cccc(F)c1)N1CC2(CCN(C(=O)Oc3ccccc3)CC2)C1
AC50 (Cytochrome P450 3A4): inconclusive | AC50 (Cytochrome P450 1A2): 12.6 µM (inconclusive)

CCN(CCNC(=O)Cn1cc2c(n1)CCCC2)c1ccccc1
AC50 [1]: 2.46 µM (active)

CCO[C@H]1OC(C(=O)Nc2ccccc2)=C[C@@H](c2ccc(Br)cc2)[C@@H]1CCCO
CC50 [15]: 17.6 µM (active) | EC50 [9]: > 120 µM (not active) | EC50 [14]: > 120 µM (not active) | EC50 [11]: > 120 µM (not active)

CCC(CC)C(=O)c1c[nH]c(C(=O)NCCCN2CCOCC2)c1
AC50 (Cytochrome P450 3A4): inconclusive | AC50 (Cytochrome P450 1A2): 25.1 µM (inconclusive)

COc1ccc(S(=O)(=O)N(C)C[C@@H]2Oc3ccc(NC(=O)Nc4ccc5c(c4)OCO5)cc3C(=O)N([C@H](C)CO)C[C@@H]2C)cc1
AC50 [16]: 2.3 µM (active) | AC50 [17]: 3.09 µM (active)

CC(C)c1ccc(S(=O)(=O)Nc2ccc(O)c(Sc3nc[nH]n3)c2)cc1
AC50 [1]: 1.49 µM (active)

CN(C)Cc1ccccc1Sc1ccc(O)cc1O
AC50 [1]: 1.78 µM (active)

COc1ccc(CCNC(=O)c2nnn(CC(=O)Nc3c(C)cc(C)cc3C)c2N)cc1OC
EC50 (cells [3]): > 350 µM (not active) | EC50 (cells [5]): > 350 µM (not active)

CSc1nsc(SCC(=O)NCc2ccccc2)n1
IC50 [6]: > 66 µM (inactive) | IC50 [7]: > 66 µM (inactive)

COc1ccc(Sc2nc(-c3ccccc3)ncc2OC)cc1
EC50 [9]: > 120 µM (not active) | EC50 [14]: 18.3 µM (active) | EC50 [11]: 16 µM (active)

c1ccc(COC2CCCN(Cc3nc(-c4cccs4)no3)C2)nc1 (stereo not drawn)
IC50 [6]: > 66 µM (inactive) | IC50 [7]: > 66 µM (inactive)

COc1ccc(N2CCN(c3ccc(N4C(=O)CC(C)C4=O)cc3[N+](=O)[O-])CC2)cc1 (stereo not drawn)
EC50 (cells [3]): > 350 µM (not active) | EC50 (cells [5]): 41.1 µM (active)
